Test results taken from patent US6759403B2, “Metalloporphyrins and their uses as radiosensitizers for radiation therapy” (Brookhaven Science Associates, LLC, priority 2001, dated 2004).

Test system: subcutaneous 9L gliosarcomas
Test: Boron biodistribution after intravenous infusion in rat 9L gliosarcoma model (Examples 6 and 7)
Assay type: in vivo, Fischer 344 rats
Protocol: This example used the experimental rat 9L gliosarcoma model and the protocol used to administer porphyrins by intravenous infusion that were reported in J. NeuroOncol, 52, 111-117, 2001. Six (6) male Fischer 344 rats bearing subcutaneous 9L gliosarcomas were infused intravenously with CuTCPBr at a total dose of 220 μg/gbw over 48 hours. Tumor and blood were sampled from each at zero, one, two and three days after the end of infusion and the boron concentrations measured. In this example, the biodistribution of CuTCPBr was compared to CuTCPH. A group of six (6) male Fischer 344 rats bearing subcutaneous 9L gliosarcomas were infused intravenously with CuTCPBr at a total dose of 220 μg/gbw over 48 hours. A second group of four (4) male Fischer 344 rats bearing subcutaneous 9L gliosarcomas were infused intravenously with CuTCPH at a total dose of 195 μg/gbw. over 48 hours. Boron concentrations in tissues from both groups of rats were taken three days after the end of infusion. The results for the CuTCPBr group of rats are listed in column 2 of Table 6 and the results for the CuTCPH group of rats are listed in column 4 of Table 6. To account for the difference in porphyrin dose (195 μg/gbw for CuTCPH versus 220 μg/gbw for CuTCPBr) and the difference in % boron in each porphyrin (31.8% for CuTCPH versus 21.7 for CuTCPBr), the boron concentrations in tissues from rats given CuTCPBr were normalized so that they would be equivalent to the boron concentrations of rats given CuTCPH. This was done by multiplying the boron concentrations in the CuTCPBr group of rats by the CuTCPBr to CuTCPH boron dose ratio of 1.3. The normalized boron concentrations for the CuTCPBr group of rats are listed in column 3 of Table 6.

[1] = 220 μg/gbw CuTCPBr (47.7 μg B/gbw) iv over 48 hours, 3 days after end of infusion
[2] = CuTCPBr 220 μg/gbw iv infusion over 48 hours, 0 days after end of infusion
[3] = CuTCPBr 220 μg/gbw iv infusion over 48 hours, 1 day after end of infusion
[4] = CuTCPBr 220 μg/gbw iv infusion over 48 hours, 2 days after end of infusion
[5] = CuTCPBr 220 μg/gbw iv infusion over 48 hours, 3 days after end of infusion
[6] = normalized to boron dose 61.8 μg B/gbw (x1.3), 3 days after end of infusion

copper octabromotetracarboranylphenylporphyrin [CuTCPBr]
Boron Concentration, Brain [1]: 0.4 (0) μg/g
Boron Concentration, Kidney [1]: 11 (1) μg/g
Boron Concentration, Lacrimal Gland [1]: 28 (13) μg/g
Boron Concentration, Liver [1]: 477 (25) μg/g
Boron Concentration, Lung [1]: 123 (42) μg/g
Boron Concentration, Lymph Nodes [1]: 202 (32) μg/g
Boron Concentration, Parotid Gland [1]: 85 (36) μg/g
Boron Concentration, Spinal Cord [1]: 0.9 (0.4) μg/g
Boron Concentration, Spleen [1]: 632 (41) μg/g
Boron Concentration, Submaxillary Gland [1]: 68 (8) μg/g
Boron Concentration, Tongue [1]: 30 (3) μg/g
Boron concentration, Ears [1]: 8.4 (1.2) μg/g
Boron Concentration, Tumor (CuTCPBr 220 μg/gbw (47.7 μg B/gbw) iv infusion over 48 hours, 3 days after end of infusion): 52 (19) μg/g
Boron Concentration, Blood [2]: 360 (30) μg/g
Boron Concentration, Tumor [2]: 67 (26) μg/g
Tumor to Blood Ratio (boron) [2]: 0.19
Boron Concentration, Blood [3]: 150 (20) μg/g
Boron Concentration, Tumor [3]: 64 (17) μg/g
Tumor to Blood Ratio (boron) [3]: 0.43
Boron Concentration, Blood [4]: 23 (7) μg/g
Boron Concentration, Tumor [4]: 75 (34) μg/g
Tumor to Blood Ratio (boron) [4]: 3.3
Boron Concentration, Blood [5]: 1.4 (0.1) μg/g
Tumor to Blood Ratio (boron) [5]: 38
Boron Concentration, Brain, CuTCPBr Normalized [6]: 0.5 µg/g
Boron Concentration, Ears, CuTCPBr Normalized [6]: 11 µg/g
Boron Concentration, Kidney, CuTCPBr Normalized [6]: 14 µg/g
Boron Concentration, Lacrimal Gland, CuTCPBr Normalized [6]: 37 µg/g
Boron Concentration, Liver, CuTCPBr Normalized [6]: 623 µg/g
Boron Concentration, Lung, CuTCPBr Normalized [6]: 161 µg/g
Boron Concentration, Lymph Nodes, CuTCPBr Normalized [6]: 264 µg/g
Boron Concentration, Parotid Gland, CuTCPBr Normalized [6]: 111 µg/g
Boron Concentration, Spinal Cord, CuTCPBr Normalized [6]: 1.2 µg/g
Boron Concentration, Spleen, CuTCPBr Normalized [6]: 825 µg/g
Boron Concentration, Submaxillary Gland, CuTCPBr Normalized [6]: 89 µg/g
Boron Concentration, Tongue, CuTCPBr Normalized [6]: 39 µg/g
Boron Concentration, Tumor, CuTCPBr Normalized [6]: 68 µg/g
Toxicity (rats, 220 μg/gbw CuTCPBr or 195 μg/gbw CuTCPH iv over 48 hours): does not appear to be a major problem
